Patent publication US10858410B2, “Glycosylated peptides with pseudoproline residues and having enhanced half-lives and ability to cross the blood brain barrier” (ARIZONA BOARD OF REGENTS ON BEHALF OF THE UNIVERSITY OF …, priority 2015, dated 2020)
Entries after “also recorded” stand apart in the source; their conditions may differ. No end group written: not given here.

Key:
[1] = in vivo, ip
PC12 cells = experiment: Differentiation of cultured PC12 cells; format: cell-based; conditions: 100 nM, compared to vehicle treated cells, qualitative
Method: The PC12 cells were cultured in RPMI containing 5% heat inactivated fetal bovine serum and 10% horse serum in the presence of 100 units/mL penicillin and 100 microgram/mL streptomycin. The cells were plated on poly-D-Lysine coated 6-well tissue culture plates at a density of 150,000 cells per well in 2 mL media. After 48 hours at 37° C. in 5% CO2 atmosphere, media exchange was performed and plates were dosed, using the peptide diluent (water) for the control samples. […] Cell images of each treatment group were captured and compared to the control cells to screen for differentiation and cell body volume increases. Cells having neurite-like process outgrowth were noted and photographed. The neurite-like outgrowth was deemed positive if its length was at least two times the width of the cell body.

human PAC1 receptors [2] = target: T1, human PAC1 receptors (Homo sapiens, UniProt P41586); experiment: FLIPR calcium flux, antagonist variable concentration mode versus 5 nM PACAP1-27, PAC1-CHO cells; format: cell-based; conditions: up to 1 μM
T1 construct: host or cells: CHO (clonal line PAC1-CHO)
T1 sequence (P41586 21-468): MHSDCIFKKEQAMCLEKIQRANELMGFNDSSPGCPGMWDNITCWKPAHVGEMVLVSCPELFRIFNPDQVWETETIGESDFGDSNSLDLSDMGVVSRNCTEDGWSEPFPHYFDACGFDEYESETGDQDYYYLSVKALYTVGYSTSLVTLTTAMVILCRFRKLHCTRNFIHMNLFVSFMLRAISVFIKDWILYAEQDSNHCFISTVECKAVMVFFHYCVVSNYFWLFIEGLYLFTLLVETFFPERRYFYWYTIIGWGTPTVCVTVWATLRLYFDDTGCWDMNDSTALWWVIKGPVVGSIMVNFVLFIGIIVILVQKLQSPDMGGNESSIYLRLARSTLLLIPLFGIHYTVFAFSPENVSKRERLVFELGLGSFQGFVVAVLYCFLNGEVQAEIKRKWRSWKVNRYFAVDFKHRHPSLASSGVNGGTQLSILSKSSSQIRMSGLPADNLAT
Method: A custom DNA clone of the human PAC1 gene with 3 hemagglutinin (HA) tags inserted 3′ to the signal peptide sequence (to avoid proteolytic loss) was obtained from Genecopoeia (Rockville, Md.). The construct was electroporated into Chinese Hamster Ovary (CHO) cells, and selected for with 500 μg/mL of G418. The resulting population was screened for high expressing clones, and one such clone selected for further analysis. […] This cell line was used for all molecular pharmacology experiments. The cells were maintained in DMEM/F12 with 10% heat-inactivated FBS, 1× penicillin/streptomycin, and 500 μg/mL G418, at 37° C. and 5% CO2.
All molecular pharmacology experiments were carried out using a FLIPR Tetra from Molecular Devices (Sunnyvale, Calif.), set to image calcium flux using the manufacturer's recommended settings and protocols. […] The resulting calcium flux was recorded, and the maximum-minimum response over the entire observation time calculated and reported as the mean±SEM (4 wells per point).
For antagonist mode experiments, a concentration curve (variable concentration mode) or fixed amount (fixed concentration mode) of antagonist was added to the cells, and allowed to equilibrate for 2 minutes. […] The resulting data was analyzed using a Gaddum/Schild EC50 shift model, (Schild, 1957, Gaddum, 1957) designed to analyze competitive antagonism. […]

human PAC1 receptors [3] = target: T1, human PAC1 receptors; experiment: FLIPR calcium flux, antagonist fixed concentration mode (Gaddum/Schild EC50 shift), PAC1-CHO cells; format: cell-based; conditions: for shift of PACAP1-27 agonist curves: fixed concentrations of antagonist up to 1 μM
Method: A custom DNA clone of the human PAC1 gene with 3 hemagglutinin (HA) tags inserted 3′ to the signal peptide sequence (to avoid proteolytic loss) was obtained from Genecopoeia (Rockville, Md.). The construct was electroporated into Chinese Hamster Ovary (CHO) cells, and selected for with 500 μg/mL of G418. The resulting population was screened for high expressing clones, and one such clone selected for further analysis. […] This cell line was used for all molecular pharmacology experiments. […] All molecular pharmacology experiments were carried out using a FLIPR Tetra from Molecular Devices (Sunnyvale, Calif.), set to image calcium flux using the manufacturer's recommended settings and protocols. The day before an experiment, the PAC1-CHO cells were split into 384 well black walled, clear bottom microplates, 10,000 cells per well. The cells were recovered overnight in growth medium (as above). The next day, the growth medium was replaced with Calcium 6 dye (Molecular Devices) using the manufacturer recommended buffer with 2.5 mM probenecid. The cells were incubated for 2 hours in the culture incubator, and removed during the last 15 minutes to allow equilibration to room temperature. Compound as indicated below was added to the cells using a 384 tip block, with real time monitoring before, during, and 15 minutes after compound addition. The resulting calcium flux was recorded, and the maximum-minimum response over the entire observation time calculated and reported as the mean±SEM (4 wells per point). For antagonist mode experiments, a concentration curve (variable concentration mode) or fixed amount (fixed concentration mode) of antagonist was added to the cells, and allowed to equilibrate for 2 minutes. […] The resulting data was analyzed using a Gaddum/Schild EC50 shift model, (Schild, 1957, Gaddum, 1957) designed to analyze competitive antagonism. […] The pharmacology values are calculated separately from each experiment, then combined and reported as the mean±SEM for the entire set of experiments.

[4] = tested on: PACAP receptors in human neuroblastoma NB-OK-1 cell membranes; conditions: Robberecht et al. 1992; read-out: reported Ki values; cited from earlier work

| Compound | presence in mouse brain / crossing the blood brain barrier [1] | neurite-like process outgrowth / differentiation (PC12 cells) | antagonist activity at PAC1 (in words) (human PAC1 receptors [2]) | Schild Slope (human PAC1 receptors [3]; fixed concentration mode) | shift of PACAP1-27 agonist curves (human PAC1 receptors [3]) | Ki [4] |
| --- | --- | --- | --- | --- | --- | --- |
| CC[C@H](C)[C@H](NC(=O)CNC(=O)[C@H](CC(=O)O)NC(=O)[C@H](CO)NC(=O)[C@@H](N)Cc1c[nH]cn1)C(=O)N[C@@H](Cc1ccccc1)C(=O)N[C@H](C(=O)N[C@@H](CC(=O)O)C(=O)N[C@@H](CO)C(=O)N[C@@H](Cc1ccc(O)cc1)C(=O)N[C@@H](CO)C(=O)N[C@@H](CCCNC(=N)N)C(=O)N[C@@H](Cc1ccc(O)cc1)C(=O)N[C@@H](CCCNC(=N)N)C(=O)N[C@@H](CCCCN)C(=O)N[C@@H](CCC(N)=O)C(=O)N[C@@H](CCSC)C(=O)N[C@@H](C)C(=O)N[C@H](C(=O)N[C@@H](CCCCN)C(=O)N[C@@H](CCCCN)C(=O)N[C@@H](Cc1ccc(O)cc1)C(=O)N[C@@H](CC(C)C)C(=O)N[C@@H](C)C(=O)N[C@@H](C)C(=O)N[C@H](C(=O)N[C@@H](CO[C@@H]1O[C@H](CO)[C@@H](O)[C@H](O)[C@H]1O)C(N)=O)C(C)C)C(C)C)[C@@H](C)O [PACAP1-27-S-G] | presence in mouse brain could be detected | – | – | – | – | – |
| CC[C@H](C)[C@H](NC(=O)CNC(=O)[C@H](CC(=O)O)NC(=O)[C@H](CO)NC(=O)[C@@H](N)Cc1c[nH]cn1)C(=O)N[C@@H](Cc1ccccc1)C(=O)N[C@H](C(=O)N[C@@H](CC(=O)O)C(=O)N[C@@H](CO)C(=O)N[C@@H](Cc1ccc(O)cc1)C(=O)N[C@@H](CO)C(=O)N[C@@H](CCCNC(=N)N)C(=O)N[C@@H](Cc1ccc(O)cc1)C(=O)N[C@@H](CCCNC(=N)N)C(=O)N[C@@H](CCCCN)C(=O)N[C@@H](CCC(N)=O)C(=O)N[C@@H](CCSC)C(=O)N[C@@H](C)C(=O)N[C@H](C(=O)N[C@@H](CCCCN)C(=O)N[C@@H](CCCCN)C(=O)N[C@@H](Cc1ccc(O)cc1)C(=O)N[C@@H](CC(C)C)C(=O)N[C@@H](C)C(=O)N[C@@H](C)C(=O)N[C@H](C(=O)N[C@@H](CC(C)C)C(N)=O)C(C)C)C(C)C)[C@@H](C)O [PACAP1-27] | – | induced neurite outgrowth | – | – | – | – |
| CSCC[C@H](NC(=O)[C@H](CCC(N)=O)NC(=O)[C@H](CCCCN)NC(=O)[C@H](CCCNC(=N)N)NC(=O)[C@H](Cc1ccc(O)cc1)NC(=O)[C@H](CCCNC(=N)N)NC(=O)[C@H](CO)NC(=O)[C@H](Cc1ccc(O)cc1)NC(=O)[C@H](CO)NC(=O)[C@H](CC(=O)O)NC(=O)[C@@H](NC(=O)[C@@H](N)Cc1ccccc1)[C@@H](C)O)C(=O)N[C@@H](C)C(=O)N[C@H](C(=O)N[C@@H](CCCCN)C(=O)N[C@@H](CCCCN)C(=O)N[C@@H](Cc1ccc(O)cc1)C(=O)N[C@@H](CC(C)C)C(=O)N[C@@H](C)C(=O)N[C@@H](C)C(=O)N[C@H](C(=O)N[C@@H](CC(C)C)C(=O)NCC(=O)N[C@@H](CCCCN)C(=O)N[C@@H](CCCNC(=N)N)C(=O)N[C@@H](Cc1ccc(O)cc1)C(=O)N[C@@H](CCCCN)C(=O)N[C@@H](CCC(N)=O)C(=O)N[C@@H](CCCNC(=N)N)C(=O)N[C@H](C(=O)N[C@@H](CCCCN)C(=O)N[C@@H](CC(N)=O)C(=O)N[C@@H](CCCCN)C(N)=O)C(C)C)C(C)C)C(C)C [PACAP6-38] | – | – | very weak antagonist activity; also recorded: shows antagonism, but it is low potency | 2.0±0.1 | induced a shift only at 1 μM; also recorded: shifts the curve only at the highest concentration (1 μM) | 1.5 nM |
| FTDSY10SRYRKQMAVK20KYLAAVL (FTDSYSRYRKQMAVKKYLAAVL-NH2; ends and bridges not checked) [PACAP6-27] | – | – | no antagonist activity and none | – | caused no shift in the agonist curves; also recorded: no detectable shifts in the agonist curves | 60 nM |
